# “And” between values parts separate entries of the source, which are not always exact repeats. Identical values can stand only once. Where a SMILES comes first, the peptide text is derived from it. Where no end group is shown, it is not given here. [ ]: non-standard residue; d: D form. Phe(4-NO2) = N[C@@H](Cc1ccc([N+](=O)[O-])cc1)C(=O)O; Oic = O=C(O)[C@@H]1C[C@@H]2CCCC[C@@H]2N1; Phe(4-Cl) = N[C@@H](Cc1ccc(Cl)cc1)C(=O)O; Phe(4-F) = N[C@@H](Cc1ccc(F)cc1)C(=O)O; Hyp = O=C(O)[C@@H]1C[C@@H](O)CN1; β3hF = N[C@H](CC(=O)O)Cc1ccccc1; β3hL = CC(C)C[C@H](N)CC(=O)O; β3hP = O=C(O)C[C@@H]1CCCN1
# Experiments:
# [1] = target: T1, Varroa mite proctolin receptor (VdProctR) (Varroa destructor, UniProt A0A7T1TE40); assay: Receptor activity assay, CHO cell line stably expressing the receptor, second set of ligands; assay type: cell-based; conditions: for Fold change: EC50 relative to proctolin, second set (stable expression)
# Procedure: (§1) Approximately thirty hours after transfection, the cells were collected and preincubated with coelenterazine h for the functional assay, as previously described[30],[31],[52]. The ligands in serial dilutions were loaded into 96-well opaque plates. Cells treated with coelenterazine h were injected into each well on an Orion microplate luminometer (Berthold) luminescent plate reader. The luminescence was measured for 20 s immediately after the cell injections. Data analyses were performed to determine the accumulated luminescence value for 20 s after extraction of blank-well luminescence. […] The three biological replications were regressed for the dose–response curves with 95% confidence intervals (Table 1). For the tests of the second set of ligands, we used the cell line that stably expressed VdProctR, which were selected by Zeocin for 5 passages.
# worker honey bee = assay: Acute toxicity on worker honey bee by injection, 24 h; conditions: 50 nL of 200 µM (10 pmol), 24 h observation, n = 4
# Procedure: For honey bee (Apis mellifera) assays, honey bee workers from healthy colonies were collected from Honeybee Valley of Ghent University, Belgium, and maintained in cages on sugar dough and water, under standardized conditions of 28–30 °C, 60–65% air humidity and continuous darkness. The colony were maintained with a periodic sanitary control that the honeybee hives are free of pathogens, diseases and viruses. There was no Varroa mite infection in the honeybee hives at the moment of collecting the workers for the assays. […] This was realized by injecting a volume of 50 nL of a concentration of the compound of 200 µM. Potential effects on survival were scored at 24 h after injection. […] This test was done with the following compounds were tested: 2439, 2334, 2336, Ac-2442 and controls. Subsequently, working solutions were freshly prepared prior to the bioassays by diluting the stock with distilled water to the required concentration.
# [2] = target: T1, Varroa mite proctolin receptor (VdProctR); assay: Receptor activity assay (aequorin luminescence), CHO cells transiently expressing the receptor, first set of ligands; assay type: cell-based; conditions: for Fold change: EC50 relative to proctolin, first set (transient expression); for efficacy (maximal response) compared with proctolin: activities at 1 μM and 10 μM; for EC50: cells with transient expression of the receptor; for potency of double-replacement analog over the corresponding single Y2 replacement analog (factor): 2338 vs 2333, 2337 vs 2329
# Procedure: as §1
# [3] = test system: proctolin myotropic assays in cockroach, locust and beetle species; conditions: cited from earlier work
# T1 sequence (A0A7T1TE40 entry or part of it): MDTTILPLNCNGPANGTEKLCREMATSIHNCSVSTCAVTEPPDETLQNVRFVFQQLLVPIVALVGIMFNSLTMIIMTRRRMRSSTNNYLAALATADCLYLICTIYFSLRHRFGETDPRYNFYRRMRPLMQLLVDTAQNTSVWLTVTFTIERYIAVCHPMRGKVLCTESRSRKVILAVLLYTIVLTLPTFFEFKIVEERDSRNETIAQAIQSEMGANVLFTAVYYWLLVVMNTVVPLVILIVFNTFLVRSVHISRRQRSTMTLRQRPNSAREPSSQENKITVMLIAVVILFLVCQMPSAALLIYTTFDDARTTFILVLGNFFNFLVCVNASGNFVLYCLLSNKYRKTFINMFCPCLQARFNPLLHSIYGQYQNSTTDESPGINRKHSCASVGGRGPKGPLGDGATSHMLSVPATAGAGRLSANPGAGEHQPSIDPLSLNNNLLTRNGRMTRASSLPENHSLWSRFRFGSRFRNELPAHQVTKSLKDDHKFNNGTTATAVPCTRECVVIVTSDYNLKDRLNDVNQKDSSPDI
compound,measurement,setting,value
"CC(=O)N[C@@H](CCCNC(=N)N)C(=O)N[C@@H](Cc1ccc(F)cc1)C(=O)N[C@@H](CC(C)C)C(=O)N1C[C@H](O)C[C@H]1C(=O)N[C@H](C(=O)O)[C@@H](C)O [Ac-2441, Ac-R[Phe(4-F)]L[HyP]T] (Ac-R[Phe(4-F)]L[Hyp]T-OH; N-terminus and C-terminus assumed)",Fold change,[1],61.5
"CC(=O)N[C@@H](CCCNC(=N)N)C(=O)N[C@@H](Cc1ccc([N+](=O)[O-])cc1)C(=O)N[C@@H](CC(C)C)C(=O)N1C[C@H](O)C[C@H]1C(=O)N[C@H](C(=O)O)[C@@H](C)O [Ac-2442, Ac-R[Phe(4-NO2)]L[HyP]T] (Ac-R[Phe(4-NO2)]L[Hyp]T-OH)",negative effects after injection into thorax,worker honey bee,did not show any negative effects
"CC(=O)N[C@@H](CCCNC(=N)N)C(=O)N[C@@H](Cc1ccc(Cl)cc1)C(=O)N[C@@H](CC(C)C)C(=O)N1C[C@H](O)C[C@H]1C(=O)N[C@H](C(=O)O)[C@@H](C)O [Ac-2443, Ac-R[Phe(4-Cl)]L[HyP]T] (Ac-R[Phe(4-Cl)]L[Hyp]T-OH)",Fold change,[1],37.5
"CC(C)C[C@H](NC(=O)[C@H](Cc1ccc(O)cc1)NC(=O)[C@@H](N)CCCNC(=N)N)C(=O)N1CCC[C@H]1C(=O)N[C@@H](C(=O)O)[C@H](C)O [Analog 2326, RYLP[dT]] (H-RYLP[dT]-OH; N-terminus and C-terminus assumed)",Fold change,[2],7654.8
"CC(C)C[C@H](NC(=O)[C@H](Cc1ccc(O)cc1)NC(=O)[C@@H](N)CCCNC(=N)N)C(=O)N1CCC[C@@H]1C(=O)N[C@H](C(=O)O)[C@@H](C)O [Analog 2327, RYL[dP]T] (H-RYL[dP]T-OH; N-terminus and C-terminus assumed)",Fold change,[2],1881.1
"CC(C)C[C@@H](NC(=O)[C@H](Cc1ccc(O)cc1)NC(=O)[C@@H](N)CCCNC(=N)N)C(=O)N1CCC[C@H]1C(=O)N[C@H](C(=O)O)[C@@H](C)O [Analog 2328, RY[dL]PT] (H-RY[dL]PT-OH; N-terminus and C-terminus assumed)",Fold change,[2],558.8
"CC(C)C[C@H](NC(=O)[C@@H](Cc1ccc(O)cc1)NC(=O)[C@@H](N)CCCNC(=N)N)C(=O)N1CCC[C@H]1C(=O)N[C@H](C(=O)O)[C@@H](C)O [Analog 2329, R[dY]LPT] (H-R[dY]LPT-OH; N-terminus and C-terminus assumed)",Fold change,[2],824.5
"CC(C)C[C@H](NC(=O)[C@H](Cc1ccc(O)cc1)NC(=O)[C@H](N)CCCNC(=N)N)C(=O)N1CCC[C@H]1C(=O)N[C@H](C(=O)O)[C@@H](C)O [Analog 2330, [dR]YLPT] (H-[dR]YLPT-OH; N-terminus and C-terminus assumed)",efficacy (maximal response) compared with proctolin,[2],higher than that of proctolin
same,EC50,"[2]; first set of peptidomimetics, listed as R1 replacement by dR, read-out: EC50",0.00562 µM
same,activity in earlier in vivo myotropic bioassays,[3],no activity
"CC(C)C[C@@H](CC(=O)N1CCC[C@H]1C(=O)N[C@H](C(=O)O)[C@@H](C)O)NC(=O)[C@H](Cc1ccc(O)cc1)NC(=O)[C@@H](N)CCCNC(=N)N [Analog 2332, RY[β3L]PT] (H-RY[β3hL]PT-OH)",Fold change,[2],661.7
"CC(C)C[C@H](NC(=O)C[C@H](Cc1ccccc1)NC(=O)[C@@H](N)CCCNC(=N)N)C(=O)N1CCC[C@H]1C(=O)N[C@H](C(=O)O)[C@@H](C)O [Analog 2333, R[β3F]LPT] (H-R[β3hF]LPT-OH)",Fold change,[2],572.0
"CC(C)C[C@H](NC(=O)[C@@H](Cc1ccc(O)cc1)NC(=O)[C@@H](N)CCCNC(=N)N)C(=O)N1C[C@H](O)C[C@H]1C(=O)N[C@H](C(=O)O)[C@@H](C)O [Analog 2337, R[dY]L[HyP]T] (H-R[dY]L[Hyp]T-OH; N-terminus and C-terminus assumed)",efficacy (maximal response),[2],full efficacy
same,potency of double-replacement analog over the corresponding single Y2 replacement analog (factor),[2],4
same,Fold change,[2],143.5
"CC(C)C[C@H](NC(=O)C[C@H](Cc1ccccc1)NC(=O)[C@@H](N)CCCNC(=N)N)C(=O)N1C[C@H](O)C[C@H]1C(=O)N[C@H](C(=O)O)[C@@H](C)O [Analog 2338, R[β3F]L[HyP]T] (H-R[β3hF]L[Hyp]T-OH)",efficacy (maximal response),[2],full efficacy
same,potency of double-replacement analog over the corresponding single Y2 replacement analog (factor),[2],8
same,EC50,"[2]; EC50, first set of peptidomimetics",0.033 µM and 0.0332 µM
same,Fold change,[2],136.1
"CC(C)C[C@H](NC(=O)[C@@H](Cc1ccc(O)cc1)NC(=O)[C@@H](N)CCCNC(=N)N)C(=O)N1[C@H](C(=O)N[C@H](C(=O)O)[C@@H](C)O)C[C@@H]2CCCC[C@@H]21 [Analog 2340, R[dY]L[Oic]T] (H-R[dY]L[Oic]T-OH)",Fold change,[2],529.7
"CC(C)C[C@H](NC(=O)[C@H](Cc1ccc(F)cc1)NC(=O)[C@@H](N)CCCNC(=N)N)C(=O)N1CCC[C@H]1C(=O)N[C@H](C(=O)O)[C@@H](C)O [Analog 2438, R[Phe(4-F)]LPT] (H-R[Phe(4-F)]LPT-OH)",EC50,[1],0.0167 µM
same,Fold change,[1],0.7
"CC(C)C[C@H](NC(=O)[C@H](Cc1ccc([N+](=O)[O-])cc1)NC(=O)[C@@H](N)CCCNC(=N)N)C(=O)N1CCC[C@H]1C(=O)N[C@H](C(=O)O)[C@@H](C)O [Analog 2439, R[Phe(4-NO2)]LPT] (H-R[Phe(4-NO2)]LPT-OH)",negative effects after injection into thorax,worker honey bee,did not show any negative effects
"CC(C)C[C@H](NC(=O)[C@H](Cc1ccc(Cl)cc1)NC(=O)[C@@H](N)CCCNC(=N)N)C(=O)N1CCC[C@H]1C(=O)N[C@H](C(=O)O)[C@@H](C)O [Analog 2440, R[Phe(4-Cl)]LPT] (H-R[Phe(4-Cl)]LPT-OH)",EC50,[1],0.00573 µM
same,Fold change,[1],0.2
"CC(C)C[C@H](NC(=O)[C@H](Cc1ccc(F)cc1)NC(=O)[C@@H](N)CCCNC(=N)N)C(=O)N1C[C@H](O)C[C@H]1C(=O)N[C@H](C(=O)O)[C@@H](C)O [Analog 2441, R[Phe(4-F)]L[HyP]T] (H-R[Phe(4-F)]L[Hyp]T-OH; N-terminus and C-terminus assumed)",Fold change,[1],0.7
same,activity compared with proctolin,"[1]; second set, stable expression",higher activity than proctolin
"GRYLPT [Analog G1, GRYLPT]",Fold change,[2],199.7
"RGYLPT [Analog G2, RGYLPT]",Fold change,[2],71648.2
"RYGLPT [Analog G3, RYGLPT]",Fold change,[2],91508.8
"RYLGPT [Analog G4, RYLGPT]",Fold change,[2],5444.9
"RYLPGT [Analog G5, RYLPGT]",Fold change,[2],3095.5
"RYLPTG [Analog G6, RYLPTG]",Fold change,[2],4088.2
same,efficacy (maximal response) compared with proctolin,[2],higher than that of proctolin
RYL[HyP]T [Analog 2334] (H-RYL[Hyp]T-OH; N-terminus and C-terminus assumed; SMILES CC(C)C[C@H](NC(=O)[C@H](Cc1ccc(O)cc1)NC(=O)[C@@H](N)CCCNC(=N)N)C(=O)N1C[C@H](O)C[C@H]1C(=O)N[C@H](C(=O)O)[C@@H](C)O),efficacy (maximal response) compared with proctolin,[2],higher than that of proctolin
RYL[β3P]T [Analog 2331] (H-RYL[β3hP]T-OH; N-terminus and C-terminus assumed; SMILES CC(C)C[C@H](NC(=O)[C@H](Cc1ccc(O)cc1)NC(=O)[C@@H](N)CCCNC(=N)N)C(=O)N1CCC[C@H]1CC(=O)N[C@H](C(=O)O)[C@@H](C)O),efficacy (maximal response) compared with proctolin,[2],higher than that of proctolin
